According to patent US8586739B2, “Heterocyclic compounds and their uses” (Amgen Inc., priority 2007, dated 2013):

Test system: human B cells
Assay: Human B cells proliferation stimulated by anti-IgM (3H thymidine)
Type: cell-based
Details: Homo sapiens, B-cell, 72 h, purified human B cells, anti-Human IgM + CD40L-LZ
Protocol: Human B Cells Proliferation stimulate by anti-IgM
Isolate PBMCs from Leukopac or from human fresh blood. Isolate human B cells by using Miltenyi protocol and B cell isolation kit II.—human B cells were Purified by using autoMACS® column.
Activation of Human B Cells
Use 96 well Flat bottom plate, plate 50000/well purified B cells in B cell proffer-ation medium (DMEM+5% FCS, 10 mM Hepes, 50 μM 2-mercaptoethanol); 150 μL medium contain 250 ng/mL CD40L-LZ recombinant protein (Amgen) and 2 μg/mL anti-Human IgM antibody (Jackson ImmunoReseach Lab.#109-006-129), mixed with 50 μL B cell medium containing PI3K inhibitors and incubate 72 h at 37° C. incubator. After 72 h, pulse labeling B cells with 0.5-1 uCi/well ^3H thymidine for overnight ˜18 h, and harvest cell using TOM harvester.

| SMILES | IC50 |
| --- | --- |
| OC1CCCN(c2nc3c(Cl)cccc3cc2CNc2ncnc3[nH]cnc23)C1 (stereo not drawn) [1-(8-chloro-3-((9H-purin-6-ylamino)methyl)-2-quinolinyl)-3-piperidinol] | 98.8 nM |
| C[C@H](Nc1ncnc2[nH]cnc12)c1cc2cccc(C#N)c2nc1-c1cccc(F)c1 [2-(3-fluorophenyl)-3-((1S)-1-(9H-purin-6-ylamino)ethyl)-8-quinolinecarbonitrile] | 3.38 nM |
| N#Cc1cccc2cc(CNc3ncnc4[nH]cnc34)c(-c3cccc(F)c3)nc12 [2-(3-fluorophenyl)-3-((9H-purin-6-ylamino)methyl)-8-quinolinecarbonitrile] | 300 nM |
| Oc1ccc(F)cc1-c1nc2c(Cl)cccc2cc1CNc1ncnc2[nH]cnc12 [2-(8-chloro-3-((9H-purin-6-ylamino)methyl)-2-quinolinyl)-4-fluorophenol] | 819 nM |
| N#Cc1ccccc1-c1nc2c(Cl)cccc2cc1CNc1ncnc2[nH]cnc12 [2-(8-chloro-3-((9H-purin-6-ylamino)methyl)-2-quinolinyl)benzonitrile] | 55.1 nM |
| C[C@H](Nc1ncnc2[nH]cnc12)c1cc2cccc(Cl)c2nc1-c1cnccc1C(N)=O [3-(8-chloro-3-((1S)-1-(9H-purin-6-ylamino)ethyl)-2-quinolinyl)-4-pyridinecarboxamide] | 4640 nM |
| C[C@H](Nc1ncnc2[nH]cnc12)c1cc2cccc(C#N)c2nc1-c1ccccn1 [3-((1S)-1-(9H-purin-6-ylamino)ethyl)-2-(2-pyridinyl)-8-quinolinecarbonitrile] | 46.7 nM |
| Clc1cccc2cc(COc3ncnc4[nH]cnc34)c(-c3ccccc3)nc12 [8-chloro-2-phenyl-3((9H-purin-6-yloxy)methyl)quinoline] | 81.4 nM |
| C[C@H](Oc1ncnc2[nH]ccc12)c1cc2cccc(Cl)c2nc1-c1ccccc1 [8-chloro-2-phenyl-3-((1S)-1-(7H-pyrrolo[2,3-d]pyrimidin-4-yloxy)ethyl)quinoline] | 3.04 nM |
| OCC[C@H](Nc1ncnc2[nH]cnc12)c1cc2cccc(Cl)c2nc1-c1ccccc1Cl [(3S)-3-(8-chloro-2-(2-chlorophenyl)-3-quinolinyl)-3-(9H-purin-6-ylamino)-1-propanol] | 13.1 nM |
| C[C@H](Nc1ncnc2[nH]cnc12)c1cc2cccc(F)c2nc1-c1ccccc1 [(S)—N-(1-(8-fluoro-2-phenylquinolin-3-yl)ethyl)-9H-purin-6-amine] | 1.42 nM |
| Nc1nc(NCc2cc3cccc(Cl)c3nc2-c2ccccc2Cl)c2nc[nH]c2n1 [N6-((8-chloro-2-(2-chlorophenyl)-3-quinolinyl)methyl)-9H-purine-2,6-diamine] | 8.9 nM |
| C[C@@H](Nc1ncnc2[nH]cnc12)c1nc2cccc(C(F)(F)F)c2nc1-c1ccccc1Cl [N-((1R)-1-(3-(2-chlorophenyl)-5-(trifluoromethyl)-2-quinoxalinyl)ethyl)-9H-purin-6-amine] | 53.4 nM |
| C[C@@H](Nc1ncnc2[nH]cnc12)c1nc2cccc(Cl)c2cc1-c1cccc(F)c1 [N-((1R)-1-(5-chloro-3-(3-fluorophenyl)-2-quinolinyl)ethyl)-9H-purin-6-amine] | 21 nM |
| C[C@@H](Nc1ncnc2[nH]cnc12)c1cc2cccc(Cl)c2nc1-c1nccs1 [N-((1R)-1-(8-chloro-2-(1,3-thiazol-2-yl)-3-quinolinyl)ethyl)-9H-purin-6-amine] | 182 nM |
| C[C@H](Nc1ncnc2[nH]cnc12)c1cc2cccc(-c3cccc(F)c3)c2nc1-c1cccc(F)c1 [N-((1S)-1-(2,8-bis(3-fluorophenyl)-3-quinolinyl)ethyl)-9H-purin-6-amine] | 1.06 nM |
| C[C@H](Nc1ncnc2[nH]cnc12)c1cc2cccc(-c3ccccn3)c2nc1-c1ccccn1 [N-((1S)-1-(2,8-di-2-pyridinyl-3-quinolinyl)ethyl)-9H-purin-6-amine] | 67.4 nM |
| C[C@H](Nc1ncnc2[nH]cnc12)c1cc2cccc(-c3ccccc3)c2nc1-c1ccccc1 [N-((1S)-1-(2,8-diphenyl-3-quinolinyl)ethyl)-9H-purin-6-amine] | 18.8 nM |
